Data published in patent US8361971B2, “Tablet formulation of ezatiostat” (Telik, Inc., priority 2010, dated 2013).

Legend:
Format in all cases: physicochemical
[1] = Assay and impurities by HPLC of tablets on storage; set-up: key to Individual Impurities RRT = 0.74 / TLK 236 RRT = 0.88 / Individual Impurities RRT = 0.96 / Total impurities: impurity content in %; conditions: 6 Month at 40° C./75% RH without desiccant, hydrochloride
[2] = Description (appearance) of tablets on storage
Protocol: (§1) Tablets of ansolvate form D, were packaged with and without desiccant (Sorb-It Cannister, 1 gram). Fifty tablets were packaged in a round, white 1500 mL bottle with a screw cap over an induction seal. Impurities were assayed by HPLC. When stored at 25° C./60% RH with desiccant for 3 months, no increase in total impurities was observed. When stored at 40° C./75% RH with desiccant for 3 months, total impurities increased only by 0.3%. When stored at 40° C./75% RH without desiccant for 3 months, total impurities still increased by 1.1%. As tabulated below, the presence of desiccant appears to further increase the stability of the ansolvate form D. Even though the dissolution rate of tablets containing polymorph D from one batch was below specification (<70%) at an initial test as well as after 3 months at 25° C./60% RH with desiccant, the subsequent batches met the required specification.

[3] = Water content of tablets on storage
Protocol: Karl Fischer analyses for water determination were performed on a Mettler Toledo DL39 Karl Fischer titrator. About 10-15 mg of sample was placed in the KF titration vessel containing approximately 100 mL of Hydranal®—Coulomat AD reagent and mixed for 60 seconds to ensure dissolution. The dissolved sample was then titrated by means of a generator electrode which produces iodine by electrochemical oxidation. […]
as §1

[4] = Assay and impurities by HPLC of tablets on storage; set-up: key to Individual Impurities RRT = 0.74 / Individual Impurities RRT = 0.83 / TLK 236 RRT = 0.88 / Individual Impurities RRT = 0.94 / Individual Impurities RRT = 0.96 / Total impurities / Individual Impurities RRT = 0.80 / Individual Impurities RRT = 0.81 / Individual Impurities RRT = 0.86 / Individual Impurities RRT = 0.99: impurity content in %
Excerpt: As used herein, “impurity” refers to one or more of: TLK 236, another polymorphic form of ezatiostat hydrochloride including without limitation form A, B, C, E, or F, and any other compound other than ezatiostat hydrochloride ansolvate, which may be identified by HPLC. TLK 236 is a monoester derived from the partial hydrolysis of ezatiostat where the phenyl glycine moiety remains esterified.
(§2) As described above, form E converts to form B simply during tableting.
as §1

[5] = Tablet dissolution (Q at 45 min); conditions: for Dissolution, Mean at 45 min: tablets
Excerpt: Without being bound by theory, a higher dissolution rate relates to a higher amount of the active agent in the gastric fluid, which in turn relates to higher bioavailability of the active agent. A high bioavailability is desired, for example and without limitation, for reducing inter patient variability of drug exposure for a orally administered agent such as ezatiostat hydrochloride. […] The aqueous solubility can be measured in a variety of aqueous solvents, including without limitation, water, 0.9% aqueous NaCl, 5% dextrose for injection, phosphate buffered saline, and generally aqueous solutions having a pH of less than about 5. Such solvents may include suitable buffers and other salts. […]
as §1

[6] = X-ray diffraction, polymorphic form in tablets; conditions: for X-ray Diffraction: tablets
Protocol: X-ray powder diffraction (XRPD) analyses were performed on a Shimadzu XRD-6000 X-ray powder diffractometer using Cu Kα radiation from a long fine focus X-ray tube, operated at 40 kV, 40 mA. The divergence and scattering slits were set at 1° and the receiving slit was set at 0.15 mm. Diffracted radiation was detected by a NaI scintillation detector. A θ-2θ continuous scan at 3°/min (0.4 sec/0.02° step) from 2.5°-40° 2θ was used. A silicon standard was analyzed to check alignment of the instrument. Data were collected and analyzed using XRD-6000 v.4.1 software.
Stress experiments: solids were stressed under different temperature and/or relative humidity (RH) environments for a measured time period. Specific RH values were achieved by placing the sample inside sealed chambers containing saturated salt solutions. Samples were analyzed by XRPD immediately after removal from the stress environment.
as §2, §1

[7] = 3 Month at 25° C./60% RH with desiccant
[8] = 3 Month at 40° C./75% RH with desiccant
[9] = 3 Month at 40° C./75% RH without desiccant
[10] = 6 Month at 40° C./75% RH without desiccant, hydrochloride
[11] = 3 Month at 40° C./75% RH without desiccant, hydrochloride
[12] = 3 Month at 40° C./75% RH without desiccant, listed as Form D Ansolvate, hydrochloride
[13] = Initial, listed as Form D Ansolvate, hydrochloride

In the case of CCOC(=O)[C@@H](N)CCC(=O)N[C@@H](CSCc1ccccc1)C(=O)N[C@@H](C(=O)OCC)c1ccccc1.Cl [Polymorph Form D, ezatiostat hydrochloride], the “Assay (HPLC)” value [1] is reported as 96.5 % Label Claim, the “Individual Impurities RRT = 0.59/0.62” value [1] is reported as 0.08 and the “Individual Impurities RRT = 0.74” value [1] is reported as 0.20. The “Individual Impurities RRT = 0.96” value [1] was 0.23, the “TLK 236 RRT = 0.88” value [1] was 2.07 and the Total impurities [1] was 2.7. The Description [2, 7] was “White round”, the Description [2, 8] was “Off-white” and the Description [2, 9] was “Off-white”. For the same compound, the Description [2, 10] was “Brown round”, the Description ([2]; Initial) was “White round” and the “Water Content” value [3, 7] was 0.5%. For the same compound, the “Water Content” value [3, 8] was 0.6%, the “Water Content” value [3, 11] was 0.8% and the “Water Content” value [3, 12] was 0.8%. The “Water Content” value [3, 10] was 0.8%, the “Water Content” value ([3]; Initial, hydrochloride) was 0.9% and the “Water Content” value [3, 13] was 0.9%. The “Assay (HPLC)” value [4, 7] was 99.7 % Label Claim, the “Individual Impurities RRT = 0.74/0.72” value [4, 7] was 0.16 and the “Individual Impurities RRT = 0.96” value [4, 7] was 0.19. The “TLK 236 RRT = 0.88” value [4, 7] was 0.34, the Total impurities [4, 7] was 0.7 and the “Assay (HPLC)” value [4, 8] was 100.8 % Label Claim. The “Individual Impurities RRT = 0.74/0.72” value [4, 8] was 0.16, the “Individual Impurities RRT = 0.83” value [4, 8] was 0.09 and the “Individual Impurities RRT = 0.94” value [4, 8] was 0.06. The “Individual Impurities RRT = 0.96” value [4, 8] was 0.19, the “TLK 236 RRT = 0.88” value [4, 8] was 0.53 and the Total impurities [4, 8] was 1.0. The “Individual Impurities RRT = 0.74/0.72” value [4, 9] was 0.18, the “Assay (HPLC)” value [4, 11] was 100.3 % Label Claim and the “Individual Impurities RRT = 0.74” value [4, 11] was 0.21. For the same compound, the “Individual Impurities RRT = 0.83” value [4, 11] was 0.07, the “Individual Impurities RRT = 0.94” value [4, 11] was 0.07 and the “Individual Impurities RRT = 0.96” value [4, 11] was 0.19. The “TLK 236 RRT = 0.88” value [4, 11] was 1.33, the Total impurities [4, 11] was 1.9 and the “Assay (HPLC)” value [4, 12] was 100.3 % Label Claim. The “Individual Impurities RRT = 0.83” value [4, 12] was 0.08, the “Individual Impurities RRT = 0.94” value [4, 12] was 0.07 and the “Individual Impurities RRT = 0.96” value [4, 12] was 0.18. The “TLK 236 RRT = 0.88” value [4, 12] was 1.3, the Total impurities [4, 12] was 1.8 and the “Individual Impurities RRT = 0.83” value [4, 10] was 0.09. For the same compound, the “increase in total impurities” value ([4]; 25° C./60% RH with desiccant for 3 months) was “no increase”, the “increase in total impurities” value ([4]; 40° C./75% RH with desiccant for 3 months) was 0.3% and the “increase in total impurities” value ([4]; 40° C./75% RH without desiccant for 3 months) was 1.1%. The “Individual Impurities RRT = 0.74/0.72” value ([4]; Initial) was 0.21, the “Assay (HPLC)” value ([4]; Initial, hydrochloride) was 101.4 % Label Claim and the “Individual Impurities RRT = 0.74” value ([4]; Initial, hydrochloride) was 0.21. The “Individual Impurities RRT = 0.96” value ([4]; Initial, hydrochloride) was 0.18, the “TLK 236 RRT = 0.88” value ([4]; Initial, hydrochloride) was 0.35 and the Total impurities ([4]; Initial, hydrochloride) was 0.7. For the same compound, the “Assay (HPLC)” value [4, 13] was 101.4 % Label Claim, the “Individual Impurities RRT = 0.96” value [4, 13] was 0.18 and the “TLK 236 RRT = 0.88” value [4, 13] was 0.35. The Total impurities [4, 13] was 0.7, the aqueous dissolution rate ([5]; as part of a tablet, measured in 0.1 molar HCl) was “higher aqueous dissolution rate than polymorphic form E” and the “Dissolution, Mean at 45 min” value ([5]; 3 Month at 25° C./60% RH with desiccant, listed as Form D Ansolvate, hydrochloride) was “Mean = 46 % of label claim”. For the same compound, the “Dissolution, Mean at 45 min” value ([5]; 3 Month at 25° C./60% RH with desiccant, listed as polymorph D, hydrochloride) was < 70 % of label claim, the “Dissolution, Mean at 45 min” value [5, 8] was “Mean = 76 % of label claim” and the “Dissolution, Mean at 45 min” value [5, 11] was “Mean = 88 % of label claim”. The “Dissolution, Mean at 45 min” value [5, 12] was “Mean = 88 % of label claim”, the “Dissolution, Mean at 45 min” value [5, 10] was “Mean = 81 % of label claim” and the “Dissolution, Mean at 45 min” value ([5]; Initial, hydrochloride) was “Mean = 51 % of label claim”. For the same compound, the “Dissolution, Mean at 45 min” value [5, 13] was “Mean = 51 % of label claim”, the “Dissolution, Mean at 45 min” value ([5]; Initial, listed as polymorph D, hydrochloride) was < 70 % of label claim and the “polymorphic conversion on storage” value ([6]; 40° C. and 75% RH without a desiccant, form D 6 months, form E 3 months, listed as ansolvate form D, hydrochloride) was “resistance to conversion to a solvate form”. For the same compound, the “X-ray Diffraction” value [6, 7] was “Polymorph D”, the “X-ray Diffraction” value [6, 8] was “Polymorph D” and the “X-ray Diffraction” value [6, 11] was “Polymorph D”. For the same compound, the “X-ray Diffraction” value [6, 12] was “Polymorph D”, the “X-ray Diffraction” value [6, 10] was “Polymorph D” and the “X-ray Diffraction” value ([6]; Initial, hydrochloride) was “Polymorph D”. For the same compound, the “X-ray Diffraction” value [6, 13] was “Polymorph D”.
